Test system: Triticum aestivum (wheat)
Experiment: Post-emergence crop plant selectivity field trial: visually scored damage to wheat
Format: in vivo
Conditions: wheat at 3-tiller growth stage, 39 days after treatment, average of three trials
Description: 1. Post-Emergence Effect on Weeds and Crop Plant Selectivity (Field Trials) Crop plants were grown outdoors on plots under natural outdoor conditions, and seeds or rhizome pieces of typical harmful plants were laid out or the natural weed growth was utilized. Treatment with the compositions according to the invention was carried out after the harmful plants had emerged and the crop plants were at the growth stage stated below. After the application, the effect of the composition was scored visually by comparison with untreated controls.

SMILES | Phytotox (%) on TRZAS (140 g ai/ha) [%] | Phytotox (%) on TRZAS (210 g ai/ha) [%] | Phytotox (%) on TRZAS (280 g ai/ha) [%] | Phytotox (%) on TRZAS (50 g ai/ha) [%] | Phytotox (%) on TRZAS (120 g ai/ha) [%]
COc1c(Cl)ccc(Cl)c1C(=O)O [(A1), 3,6-dichloro-2-methoxybenzoic acid] | 27 | 25 | 27 | – | –
CCOC(=O)C1=NN(c2ccc(Cl)cc2Cl)C(C)(C(=O)OCC)C1 (centres unmarked) [(B1.1.1), ethyl 1-(2,4-dichlorophenyl)-5-(ethoxycarbonyl)-5-methyl-2-pyrazoline-3-carboxylate] | – | – | – | 0 | 0
